Measurements: publication PMC4547397, “A Caged Ret Kinase Inhibitor and its Effect on Motoneuron Development in Zebrafish Embryos” (Scientific Reports, 2015)
pIC50: −log10 of the molar value. “Also recorded” adds a separate entry of the source. Where two headings read alike, the source gives them in different places.

Tests used:
C643 cells = test system: C643 cells; design: method as in PMID 25409876; conditions: cited from earlier work
[1] = test system: cell lines used (TPC1, 8505C, C643, MCF7); design: method as in PMID 25409876; conditions: any of the cell lines used; cited from earlier work
RET kinase (c-RET-GFRα2) = RET kinase (c-RET-GFRα2) (Homo sapiens, UniProt P07949); experiment: PathHunter express c-RET-GFRα2 functional live-cell assay (neurturin stimulated); type: cell-based
RET kinase (c-RET-GFRα2), sequence (P07949 29-1114): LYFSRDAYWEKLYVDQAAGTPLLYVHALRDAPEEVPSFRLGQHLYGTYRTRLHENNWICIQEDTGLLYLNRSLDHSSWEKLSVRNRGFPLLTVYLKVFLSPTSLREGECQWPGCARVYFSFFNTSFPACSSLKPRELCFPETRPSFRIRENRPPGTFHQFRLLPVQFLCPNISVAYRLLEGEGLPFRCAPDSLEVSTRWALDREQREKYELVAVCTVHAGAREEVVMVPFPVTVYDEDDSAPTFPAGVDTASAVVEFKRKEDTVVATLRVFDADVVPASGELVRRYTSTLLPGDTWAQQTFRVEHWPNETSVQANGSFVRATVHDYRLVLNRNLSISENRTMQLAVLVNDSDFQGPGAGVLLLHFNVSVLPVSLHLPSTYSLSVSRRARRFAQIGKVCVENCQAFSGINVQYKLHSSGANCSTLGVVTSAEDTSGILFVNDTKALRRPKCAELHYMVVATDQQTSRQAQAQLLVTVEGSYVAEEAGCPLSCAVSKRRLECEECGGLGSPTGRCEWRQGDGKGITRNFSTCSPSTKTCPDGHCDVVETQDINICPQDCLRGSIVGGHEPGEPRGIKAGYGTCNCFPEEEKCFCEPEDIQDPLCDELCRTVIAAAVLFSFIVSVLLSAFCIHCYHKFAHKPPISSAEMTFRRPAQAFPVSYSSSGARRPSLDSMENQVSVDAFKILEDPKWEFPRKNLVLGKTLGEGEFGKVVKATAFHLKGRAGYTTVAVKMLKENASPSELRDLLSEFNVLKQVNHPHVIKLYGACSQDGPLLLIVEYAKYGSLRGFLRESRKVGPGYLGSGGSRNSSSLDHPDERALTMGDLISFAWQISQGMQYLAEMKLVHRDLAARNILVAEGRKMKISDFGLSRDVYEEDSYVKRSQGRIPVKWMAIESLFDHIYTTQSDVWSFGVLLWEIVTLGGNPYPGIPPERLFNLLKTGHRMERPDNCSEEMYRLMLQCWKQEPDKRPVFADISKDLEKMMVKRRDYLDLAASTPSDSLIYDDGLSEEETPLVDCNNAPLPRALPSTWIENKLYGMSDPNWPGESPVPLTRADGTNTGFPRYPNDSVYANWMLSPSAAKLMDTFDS
Experimental: The photoactivation of 6 was also tested in a RET functional whole cell assay which utilizes β-galactosidase to produce a luminescent readout[24][25][26] (see Methods section for assay details). Compound 6 was added to live cells expressing RET kinase in two identical preparations, followed by 3 h preincubation at 37 °C. At this point, one preparation was exposed to light (365 nm, 15 min), while the other was kept in the dark. Again, 15 min is clearly not sufficient to complete the decaging (see above). Addition of the growth factor neurturin (required to activate the RET kinase) and incubation for 3 h at 22 °C allowed for activity-correlating signal induction using the supplemented detection reagents. […] To again exclude distortive effects of light on the cells, incubations without inhibitor were exposed to light.
PathHunter express c-RET-GFRα2 functional assay and recombinant human neurturin were purchased from DiscoveRx (DiscoveRx Corporation, Fremont CA 94538 USA) and used according to instructions. […] Incubations were performed in the provided assay buffer (1 vol% DMSO) in a white flat/clear-bottom 96-well plate. Incubation volume was 110 μL. Brief procedure; Cells were thawed and diluted to ca. 100 000 cells/mL, followed by plating and acclimatization in 37 °C, 5% CO2, humidified, environment for 48 h. Thereafter, the inhibitor was added and the plate was returned to 37 °C for 3 h. The cells were then stimulated with the GDNF-family growth factor neurturin (applied concentration: 15 ng/mL = EC80) and incubated 3 h at 22 °C in the dark. An activity-correlating luminescence signal was induced using the detection reagent provided in the kit according to the recommended protocol. Luminescence was recorded on a BMG Labtech Fluostar Omega luminometer. All incubations were done in duplicates.

[2] = test system: GDNF-induced RET phosphorylation of ERK1/2; design: method as in PMID 22559926; conditions: cited from earlier work
[3] = test system: RET/PTC1 expressing TPC1 cells; design: method as in PMID 25409876; conditions: cited from earlier work
8505C cells = test system: 8505C cells; design: method as in PMID 25409876; conditions: cited from earlier work
[4] = test system: zebrafish embryos tg(olig2:dsRed) (ret); experiment: Motoneuron development in zebrafish embryos, confocal imaging at 2 dpf; type: in vivo, Danio rerio
Experimental: In the light of this, we chose to investigate the decaging of 6 in the transgenic zebrafish line tg(olig2:dsRed)[33], and any effect this may have on the motoneuron development. The choice of zebrafish line is motivated by the labeling of ventral spinal cord precursor cells that produce motoneurons and oligodendrocytes, facilitating the assessment of altered motoneuron phenotypes. Transgenic zebrafish embryos were incubated in 10 μM and 50 μM solutions of 6 at 3 hours post fertilization (hpf) for 11 h. We opted for decaging at 14 hpf since primary motoneurons start to sprout growth cones at 18 hpf[36]. We hypothesized that blocking ret signalling at this time point would primarily affect axonal extension and not formation of motoneurons. After washing with fresh medium the embryos were irradiated for 15 min (365 nm). The embryos were left to develop until 2 days post fertilization (dpf) when their spinal cords were scanned with confocal imaging. […] All experimental procedures were carried out in compliance with relevant guidelines and regulations of the Swedish National Board for Laboratory Animals. The protocols were also approved by the medical ethics committee of University of Gothenburg. Zebrafish (Danio rerio) embryos of strain tg(olig2:dsRed)[32] were kept at the Institute of Neuroscience and Physiology, University of Gothenburg. Fertilized eggs were collected and kept in petri dishes containing embryo medium (EM; 5.03 mM NaCl, 0.17 mM KCl, 0.33 mM CaCl2·2H2O, 0.33 mM MgCl2·6H2O), in darkness, in an incubator at 28.5 °C. Eggs were incubated in either 6 or 1% DMSO from 3 hours post-fertilization (hpf) and then dechorinated at 9 hpf to allow for better compound uptake. After 11 hours of incubation, 14 hpf embryos were washed three times with EM and moved to clean petri dishes containing 1-phenyl 2-thiourea (PTU, 0,003%, Sigma) and diluted in EM to prevent pigmentation. Embryos were irradiated for 15 min (365 nm) and then kept in the incubator until time of confocal imaging. A second set of animals were incubated in 6 from 14 hpf to 24 hpf, after which animals were washed and illuminated in the same way as the first group. Prior to imaging at 2 days post-fertilization (dpf), the embryos were anesthetized using 0.02% tricaine methanesulfonate (MS-222) diluted in EM and embedded in low-melting agarose. The imaging was performed on a ZEISS LSM710 confocal microscope at the Centre for Cellular Imaging at the Sahlgrenska Academy. Stacks of labeled spinal cord neurons were collected using a 561 nm laser. Maximal intensity pictures of spinal cord hemisegments and axonal phenotypes were analyzed using ImageJ (U. S. National Institutes of Health, Bethesda, Maryland, USA) according to Abramsson et al. 2013[38].

RET = test system: RET; design: method as in PMID 22559926; conditions: cited from earlier work
MCF7 cells = test system: MCF7 cells; design: method as in PMID 25409876; conditions: cited from earlier work
Human recombinant RET = target: T1, Human recombinant RET (Homo sapiens, UniProt P07949); experiment: In vitro (cell-free) RET kinase incubation, luminescent ADP detection; type: biochemical; conditions: for pIC50: read-out: IC50, RET-induced ATP turnover; for RET kinase activity: 1.6 μM
T1 construct: purchased Promega; host or cells: Sf9 insect cells
T1 sequence (P07949 29-1114): as above
Experimental: With the caged compound in hand, the ability to photocontrol the inhibition of RET kinase was assessed. For this purpose, an in vitro assay with purified RET kinase was used to measure ADP production during substrate phosphorylation. Compound 6 was added to two parallel preparations comprising RET kinase and substrate. One preparation was exposed to light (365 nm, 15 min), while the other was kept in the dark.
After adding ATP and incubating at room temperature for 30 min, the relative ATP turnover was assessed. […] For example; irradiating an administered dose of 1.6 μM 6, would modulate the RET kinase activity from 90% to 10%.
Human recombinant RET expressed in Sf9 insect cells (Specific Activity: 220 nmol^−1min^−1mg^−1), substrate (IGFlRtide), and ATP were purchased in an assay ready kit from Promega[37] (Promega Corporation, Madison WI 53711 USA) and used as received. Incubations were performed in 40 mM Tris buffer (pH 7.4, 1 vol% DMSO) supplemented with 50 μM DTT and 20 mM MgCl2 in a white flat-bottom 96-well plate. Incubation volume was 25 μL. Brief procedure; Kinase (0.8 μg/mL), substrate (40 μg/mL), ATP (10 μM) and inhibitor were combined and incubated for 30 min at room temperature in the dark, with shaking. After the kinase reaction, two detection reagents were added in a stepwise manner. The first reagent depleted the remaining (unreacted) ATP in the reaction mix. The second reagent converted the ADP produced in the kinase reaction to ATP and generated a luminescence signal using a luciferase/luciferin reaction. The light generated is proportional to the amount ADP present and, consequently, to the kinase activity. Luminescence was recorded on a BMG Labtech Fluostar Omega luminometer. All incubations were done in duplicates.
2. Fitting of dose-response data
Positive and negative control experiments with and without light exposure (15 min, 365 nm) were run in parallel to the inhibitor incubations. The positive control was identical to the inhibitor experiment but with buffer additions instead of ATP and Neurturin for the cell-free and live-cell incubation, respectively. The negative control was identical to the inhibitor experiment but with inhibitor diluent (DMSO) addition instead of inhibitor. The intensity reading from the positive control was subtracted from the corresponding value from the inhibitor incubation. This was followed by normalization to the negative control reading. The resulting luminescence intensities (I) at the applied inhibitor concentrations (C) were fitted to […]
A global, error-weighted (instrumental) fit was performed by making the top- (A2) and bottom (A1) asymptotes shared parameters for the included data sets. […]
140/2013, and followed the guidelines of the Swedish National Board for Laboratory

[5] = Solubility in aqueous media / buffer; type: physicochemical
[6] = Light-induced decaging (365 nm) monitored by HPLC; type: physicochemical
Experimental: Indeed, this compound was soluble in aqueous buffer (1 vol% DMSO) up to 100 μM. Photoinduced cleavage of 6 was readily achieved with 365 nm light, as monitored by HPLC.
(§1) Steady state absorption measurements (for thermal stability assessment of 6, see Fig. S3) were carried out on a Cary Bio 50 UV/vis spectrometer equipped with a Varian PCB 1500 Water Peltier System thermostat for temperature control. Sample volume was 3.0 mL. […] Irradiation in the assays was accomplished by placing the lamp directly on top of the sample plates/dishes. It should be noted that the exact light conditions in the assays may differ slightly depending on the type of plates/dishes used (see Methods sections below for plate specifications).
Figure S1. Light-induced decaging of 6. A Tris buffer solution (1vol% DMSO) containing 100 µM 6 was successively subjected to t = 0, 3, 6, 9, 12, 15, 30, 60, and 90 min of 365 nm light. After each irradiation period, an aliquot was drawn and analyzed using HPLC with UV detection. The integrated areas for the chromatogram peaks associated with 1 (hollow squares) and 6 (solid circles) were fitted globally (shared time constant) to a first order exponential (solid line), yielding a time constant of τ = 9.6 min for the decaging of 6. It should be noted that the individually extracted time constants for […]
from the globally fitted value.
(§2) (1 picture or pasted object on this page, not shown here)

[7] = Thermal stability in aqueous buffer by UV/vis absorption; type: physicochemical; conditions: 48 h, 37 °C, 10 mM phosphate buffer pH 7.0, 1 vol% DMSO
Experimental: as §1
5.3 Thermal stability of 6 in 10 mM phosphate buffer, pH 7.
Figure S3. UV/vis absorption spectra of 6 in 10 mM phosphate buffer (pH 7.0, 1 vol% DMSO) at
t = 0 (solid black line), and after t = 48 h in 37 °C (dashed red line). Inset: Absorption at λ = 321 nm as
as §2

[8] = 100 µM 6 in Tris buffer 1 vol% DMSO

## CC(C)n1nc(C#Cc2ccccc2)c2c(N)ncnc21 [compound 1]
C643 cells
  MAPK signalling and proliferation: not
[1]
  cytotoxicity: No cytotoxicity was observed
RET kinase (c-RET-GFRα2); free inhibitor, no irradiation, 3 h preincubation 37 °C
  pIC50: 6.33
[2]
  effect on GDNF-induced RET phosphorylation of ERK1/2: inhibitory effect
[3]
  MAPK signalling and proliferation: inhibited
8505C cells
  MAPK signalling and proliferation: not
[4]; 10 μM during development
  motoneuron axonal phenotype: phenotype was also observed
[4]; 50 μM for 90 min at 6 hpf
  motoneuron axonal phenotype: phenotype was also observed
RET
  in vitro activity against RET: low nM range
  selectivity profile toward RET: partial inhibition of only six other tyrosine kinases
MCF7 cells
  PI3K/Akt and MAPK signalling and estrogen receptor α (ERα) phosphorylation: inhibited
  proliferation: inhibit proliferation to a similar degree as tamoxifen
Human recombinant RET; free inhibitor, no irradiation, 10 μM ATP, 30 min room temperature
  pIC50: 7.14

## COc1cc(COC(=O)Nc2ncnc3c2c(C#Cc2ccccc2)nn3C(C)C)c([N+](=O)[O-])cc1OC [compound 2]
[5]
  solubility in aqueous media: insufficiently soluble

## COc1cc(COC(=O)Nc2ncnc3c2c(C#Cc2ccccc2)nn3CCO)c([N+](=O)[O-])cc1OC [compound 3]
[5]
  solubility in aqueous media: too low to be practical for biological assays

## COc1cc(COC(=O)Nc2ncnc3c2c(C#Cc2ccccc2)nn3C(C)C)c([N+](=O)[O-])cc1OCC(=O)O [compound 6, 2-(4-((((1-isopropyl-3-(phenylethynyl)-1H-pyrazolo[3,4-d]pyrimidin-4-yl)carbamoyl)oxy)methyl)-2-methoxy-5-nitrophenoxy)acetic acid]
[6]
  exposure time required for complete (>99%) decaging: at least 45 minutes
[6]; [8]
  time constant τ, consumption of 6 (individual fit): 8.7 min
  time constant τ, liberation of 1 (individual fit): 13.1 min
[6]; 1.5 mW/cm^2, 100 µM in Tris buffer 1 vol% DMSO
  time constant τ of decaging, global fit (first order): 9.6 min
RET kinase (c-RET-GFRα2); irradiated (365 nm, 15 min)
  pIC50: 5.06
RET kinase (c-RET-GFRα2); non-irradiated
  IC50, live-cell RET activity: no IC50 value could be obtained
RET kinase (c-RET-GFRα2); non-irradiated, at concentrations higher than 6 μM
  partial inhibition of RET activity in live cells: ca. 40%
[7]
  thermal stability (absorption spectrum): no changes in the absorption spectrum were detected; also recorded: No signs of degradation
[4]; 10 μM, irradiated 15 min at 14 hpf
  motoneuron axonal phenotype: virtually no effect
[4]; 50 μM from 3 hpf for 11 h, irradiated 15 min 365 nm at 14 hpf, imaged 2 dpf
  motoneuron axonal phenotype: motoneurons with shortened and malformed axons
[4]; irradiated at 24 hpf after 10 h of incubation and wash
  motoneuron axonal phenotype: similar, but less severe, axonal phenotypes
[4]; non-irradiated embryos (50 μM)
  motoneuron axonal phenotype: did not show any phenotypic anomalies
Human recombinant RET; after irradiation
  RET kinase activity: 10%
Human recombinant RET; before irradiation
  RET kinase activity: 90%
Human recombinant RET; irradiated (365 nm, 15 min) vs non-irradiated
  increase of inhibitory capability upon light exposure: 12 fold
Human recombinant RET; non-irradiated (kept in the dark)
  pIC50: 5.17
[5]; kinetic from dmso stock, aqueous buffer, 1 vol% DMSO
  solubility: ≤ 100 µM
